# In the NIST ThermoML archive (doi:10.1021/je100765j):
# ± gives the expanded uncertainty stated by the source.
# What was measured:
# [1] = 101.33 kPa, Liquid; for speed of sound: Sing-around technique in a fixed-path interferometer; for mass density: Vibrating tube method
# [2] = refractive index (Na D-line) (dimensionless); conditions: 101.33 kPa, Liquid, Standard Abbe refractometry
compound,measurement,setting,value
CC(C)OC(C)C [diisopropyl ether],speed of sound,[1]; 283.15 K,1065.5 ± 1.1 m/s
same,mass density,[1]; 283.15 K,733.833 ± 0.24 kg/m3
same,speed of sound,[1]; 288.15 K,1043.1 ± 1.1 m/s
same,mass density,[1]; 288.15 K,728.692 ± 0.24 kg/m3
same,speed of sound,[1]; 293.15 K,1020.6 ± 1.1 m/s
same,mass density,[1]; 293.15 K,723.509 ± 0.24 kg/m3
same,speed of sound,[1]; 298.15 K,998.27 ± 1.1 m/s
same,mass density,[1]; 298.15 K,718.289 ± 0.24 kg/m3
same,speed of sound,[1]; 303.15 K,976.02 ± 1.1 m/s
same,mass density,[1]; 303.15 K,713.032 ± 0.25 kg/m3
same,speed of sound,[1]; 308.15 K,953.94 ± 1.1 m/s
same,mass density,[1]; 308.15 K,707.727 ± 0.25 kg/m3
same,speed of sound,[1]; 313.15 K,932.01 ± 1.1 m/s
same,mass density,[1]; 313.15 K,702.378 ± 0.25 kg/m3
same,refractive index,[2]; 283.15 K,1.37358 ± 0.00037
same,refractive index,[2]; 288.15 K,1.37084 ± 0.00037
same,refractive index,[2]; 293.15 K,1.36812 ± 0.00037
same,refractive index,[2]; 298.15 K,1.36525 ± 0.00037
same,refractive index,[2]; 303.15 K,1.36242 ± 0.00037
same,refractive index,[2]; 308.15 K,1.35956 ± 0.00037
same,refractive index,[2]; 313.15 K,1.35667 ± 0.00037
CCCCCl [1-chlorobutane],speed of sound,[1]; 283.15 K,1180.1 ± 1.2 m/s
same,mass density,[1]; 283.15 K,897.339 ± 0.23 kg/m3
same,speed of sound,[1]; 288.15 K,1159.5 ± 1.2 m/s
same,mass density,[1]; 288.15 K,891.855 ± 0.23 kg/m3
same,speed of sound,[1]; 293.15 K,1138.8 ± 1.2 m/s
same,mass density,[1]; 293.15 K,886.335 ± 0.23 kg/m3
same,speed of sound,[1]; 298.15 K,1118.2 ± 1.2 m/s
same,mass density,[1]; 298.15 K,880.705 ± 0.23 kg/m3
same,speed of sound,[1]; 303.15 K,1097.6 ± 1.2 m/s
same,mass density,[1]; 303.15 K,875.204 ± 0.23 kg/m3
same,speed of sound,[1]; 308.15 K,1077.2 ± 1.1 m/s
same,mass density,[1]; 308.15 K,869.585 ± 0.23 kg/m3
same,speed of sound,[1]; 313.15 K,1056.9 ± 1.1 m/s
same,mass density,[1]; 313.15 K,863.882 ± 0.23 kg/m3
same,refractive index,[2]; 283.15 K,1.4075 ± 0.00037
same,refractive index,[2]; 288.15 K,1.40481 ± 0.00037
same,refractive index,[2]; 293.15 K,1.40212 ± 0.00037
same,refractive index,[2]; 298.15 K,1.3995 ± 0.00037
same,refractive index,[2]; 303.15 K,1.39672 ± 0.00037
same,refractive index,[2]; 308.15 K,1.39395 ± 0.00037
same,refractive index,[2]; 313.15 K,1.39131 ± 0.00037
CC(C)CCl [1-chloro-2-methylpropane],speed of sound,[1]; 283.15 K,1141.7 ± 1.2 m/s
same,mass density,[1]; 283.15 K,888.845 ± 0.23 kg/m3
same,speed of sound,[1]; 288.15 K,1120.7 ± 1.2 m/s
same,mass density,[1]; 288.15 K,883.211 ± 0.23 kg/m3
same,speed of sound,[1]; 293.15 K,1099.6 ± 1.2 m/s
same,mass density,[1]; 293.15 K,877.539 ± 0.23 kg/m3
same,speed of sound,[1]; 298.15 K,1078.7 ± 1.1 m/s
same,mass density,[1]; 298.15 K,871.833 ± 0.23 kg/m3
same,speed of sound,[1]; 303.15 K,1057.8 ± 1.1 m/s
same,mass density,[1]; 303.15 K,866.096 ± 0.23 kg/m3
same,speed of sound,[1]; 308.15 K,1037 ± 1.1 m/s
same,mass density,[1]; 308.15 K,860.319 ± 0.23 kg/m3
same,speed of sound,[1]; 313.15 K,1016.3 ± 1.1 m/s
same,mass density,[1]; 313.15 K,854.502 ± 0.23 kg/m3
same,refractive index,[2]; 283.15 K,1.40354 ± 0.00037
same,refractive index,[2]; 288.15 K,1.4008 ± 0.00037
same,refractive index,[2]; 293.15 K,1.39802 ± 0.00037
same,refractive index,[2]; 298.15 K,1.39529 ± 0.00037
same,refractive index,[2]; 303.15 K,1.39245 ± 0.00037
same,refractive index,[2]; 308.15 K,1.38963 ± 0.00037
same,refractive index,[2]; 313.15 K,1.38683 ± 0.00037
CC(C)(C)Cl [2-chloro-2-methylpropane],speed of sound,[1]; 283.15 K,1046.9 ± 1.1 m/s
same,mass density,[1]; 283.15 K,855.249 ± 0.23 kg/m3
same,speed of sound,[1]; 288.15 K,1025.5 ± 1.1 m/s
same,mass density,[1]; 288.15 K,849.243 ± 0.23 kg/m3
same,speed of sound,[1]; 293.15 K,1004.1 ± 1.1 m/s
same,mass density,[1]; 293.15 K,843.191 ± 0.23 kg/m3
same,speed of sound,[1]; 298.15 K,983.25 ± 1.1 m/s
same,mass density,[1]; 298.15 K,837.096 ± 0.23 kg/m3
same,speed of sound,[1]; 303.15 K,961.51 ± 1.1 m/s
same,mass density,[1]; 303.15 K,830.958 ± 0.23 kg/m3
same,speed of sound,[1]; 308.15 K,940.46 ± 1.1 m/s
same,mass density,[1]; 308.15 K,824.772 ± 0.23 kg/m3
same,speed of sound,[1]; 313.15 K,919.41 ± 1.1 m/s
same,mass density,[1]; 313.15 K,818.536 ± 0.24 kg/m3
same,refractive index,[2]; 283.15 K,1.39115 ± 0.00037
same,refractive index,[2]; 288.15 K,1.38821 ± 0.00037
same,refractive index,[2]; 293.15 K,1.38522 ± 0.00037
same,refractive index,[2]; 298.15 K,1.38225 ± 0.00037
same,refractive index,[2]; 303.15 K,1.37921 ± 0.00037
same,refractive index,[2]; 308.15 K,1.37619 ± 0.00037
same,refractive index,[2]; 313.15 K,1.37312 ± 0.00037
CCC(C)Cl (stereo not given) [2-chlorobutane],speed of sound,[1]; 283.15 K,1127.7 ± 1.2 m/s
same,mass density,[1]; 283.15 K,884.34 ± 0.23 kg/m3
same,speed of sound,[1]; 288.15 K,1107.2 ± 1.2 m/s
same,mass density,[1]; 288.15 K,878.756 ± 0.23 kg/m3
same,speed of sound,[1]; 293.15 K,1086.7 ± 1.1 m/s
same,mass density,[1]; 293.15 K,873.13 ± 0.23 kg/m3
same,speed of sound,[1]; 298.15 K,1066.2 ± 1.1 m/s
same,mass density,[1]; 298.15 K,867.474 ± 0.23 kg/m3
same,speed of sound,[1]; 303.15 K,1045.9 ± 1.1 m/s
same,mass density,[1]; 303.15 K,861.779 ± 0.23 kg/m3
same,speed of sound,[1]; 308.15 K,1025.3 ± 1.1 m/s
same,mass density,[1]; 308.15 K,856.044 ± 0.23 kg/m3
same,speed of sound,[1]; 313.15 K,1005.3 ± 1.1 m/s
same,mass density,[1]; 313.15 K,850.266 ± 0.23 kg/m3
same,refractive index,[2]; 283.15 K,1.40226 ± 0.00037
same,refractive index,[2]; 288.15 K,1.39953 ± 0.00037
same,refractive index,[2]; 293.15 K,1.3968 ± 0.00037
same,refractive index,[2]; 298.15 K,1.39404 ± 0.00037
same,refractive index,[2]; 303.15 K,1.39125 ± 0.00037
same,refractive index,[2]; 308.15 K,1.38844 ± 0.00037
same,refractive index,[2]; 313.15 K,1.38562 ± 0.00037
